Source: ChEMBL document CHEMBL1140459, “Synthesis of poison-frog alkaloids 233A, 235U, and 251AA and their inhibitory effects on neuronal nicotinic acetylcholine receptors” (Bioorg Med Chem Lett, 2007)

Columns and labels:
[1] = target: Neuronal acetylcholine receptor; alpha4/beta2 (Homo sapiens, UniProt P17787+P43681); experiment: Inhibition of alpha4beta2 nAchR expressed in Xenopus laevis oocytes assessed as acetylcholine-induced current by voltage-clamp method; format: cell-based, Oocyte
[2] = target: Neuronal acetylcholine receptor subunit alpha-7 (Homo sapiens, UniProt P36544); experiment: Inhibition of alpha-7 nAchR expressed in Xenopus laevis oocytes assessed as acetylcholine-induced current by voltage-clamp method; format: functional, cell-based, Oocyte
Chain of Neuronal acetylcholine receptor subunit alpha-7 (P36544 whole entry): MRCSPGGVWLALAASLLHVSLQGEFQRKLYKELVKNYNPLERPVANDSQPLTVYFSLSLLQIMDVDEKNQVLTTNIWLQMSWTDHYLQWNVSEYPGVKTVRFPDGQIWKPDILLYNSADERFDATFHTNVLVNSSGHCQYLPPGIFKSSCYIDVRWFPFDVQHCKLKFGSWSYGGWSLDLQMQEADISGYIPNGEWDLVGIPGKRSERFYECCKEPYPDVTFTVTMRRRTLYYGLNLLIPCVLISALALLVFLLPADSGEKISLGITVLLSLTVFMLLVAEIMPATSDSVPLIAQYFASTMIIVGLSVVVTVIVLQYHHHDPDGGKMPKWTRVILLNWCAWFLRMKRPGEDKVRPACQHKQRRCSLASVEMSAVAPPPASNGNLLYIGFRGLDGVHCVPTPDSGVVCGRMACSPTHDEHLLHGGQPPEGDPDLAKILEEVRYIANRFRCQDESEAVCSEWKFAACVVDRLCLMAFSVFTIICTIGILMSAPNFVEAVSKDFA

Chain of Neuronal acetylcholine receptor; alpha4/beta2 (P17787 whole entry): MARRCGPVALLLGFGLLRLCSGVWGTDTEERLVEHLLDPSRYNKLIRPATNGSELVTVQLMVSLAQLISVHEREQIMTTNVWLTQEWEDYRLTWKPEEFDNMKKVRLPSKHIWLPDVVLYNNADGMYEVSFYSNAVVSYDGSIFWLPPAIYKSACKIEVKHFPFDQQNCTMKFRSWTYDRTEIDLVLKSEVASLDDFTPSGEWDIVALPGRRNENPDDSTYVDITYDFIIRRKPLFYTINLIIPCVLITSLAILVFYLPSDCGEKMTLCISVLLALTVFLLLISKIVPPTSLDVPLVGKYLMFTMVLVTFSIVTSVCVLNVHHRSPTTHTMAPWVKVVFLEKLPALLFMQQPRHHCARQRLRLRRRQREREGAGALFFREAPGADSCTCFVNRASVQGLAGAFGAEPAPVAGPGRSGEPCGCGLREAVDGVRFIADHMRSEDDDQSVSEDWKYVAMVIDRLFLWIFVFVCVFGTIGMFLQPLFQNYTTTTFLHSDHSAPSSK
Chain of Neuronal acetylcholine receptor; alpha4/beta2 (P43681 whole entry): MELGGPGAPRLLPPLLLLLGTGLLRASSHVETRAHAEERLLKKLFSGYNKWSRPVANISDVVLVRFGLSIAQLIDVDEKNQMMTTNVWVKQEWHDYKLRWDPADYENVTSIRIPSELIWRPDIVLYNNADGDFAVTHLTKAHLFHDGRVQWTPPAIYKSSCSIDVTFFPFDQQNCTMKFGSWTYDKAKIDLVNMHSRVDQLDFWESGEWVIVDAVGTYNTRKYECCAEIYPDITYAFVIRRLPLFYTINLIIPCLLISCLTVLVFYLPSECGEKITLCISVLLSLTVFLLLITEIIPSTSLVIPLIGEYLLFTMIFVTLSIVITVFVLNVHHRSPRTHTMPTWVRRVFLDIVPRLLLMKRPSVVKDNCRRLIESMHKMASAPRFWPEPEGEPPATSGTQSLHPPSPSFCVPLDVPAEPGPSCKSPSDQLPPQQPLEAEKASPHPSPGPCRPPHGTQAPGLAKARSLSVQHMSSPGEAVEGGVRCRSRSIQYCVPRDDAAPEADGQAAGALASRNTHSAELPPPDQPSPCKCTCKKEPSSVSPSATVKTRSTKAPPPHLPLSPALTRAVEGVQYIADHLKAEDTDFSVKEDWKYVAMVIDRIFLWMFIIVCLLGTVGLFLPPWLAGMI

| Structure (SMILES) | IC50 [1] | IC50 [2] |
| --- | --- | --- |
| C#CCCC[C@@H]1CC[C@@H](CC)[C@@H]2CCCCN12 | 5.1 µM | 7.4 µM |
| C=CCCC[C@@H]1CC[C@@H](CC)[C@@H]2CCCCN12 | 3.5 µM | 5.2 µM |
| CCCCCC[C@@H]1CC[C@@H](CC)[C@@H]2CCCCN12 | 2.5 µM | 4.1 µM |
